Results: patent US20230165831A1, “METHOD AND COMPOSITION FOR RENDERING CANCER CELLS SUSCEPTIBLE TO TREATMENT BY TARGETED ONCOGENETIC DRIVERS” (IMPACT BIOLIFE SCIENCE, INC., priority 2021, published 2023)
Where two headings read alike, the source gives them in different places.

Experiments:
[1] = system: kidney cancer line 786-O cells; experiment: CTG (CellTiter-Glo) cell viability assay, 6×6 combo matrix, 72 h, 786-O; conditions: Homo sapiens;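 note: luminescence read-out after adding CellTiter-Glo reagent, with cells incubated at 37 °C under 5% CO2 during compound exposure, part of a ten cell line synergy study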
Description: (§1) 7) Using complete cell medium, adjust the volume of the suspension to achieve a cell concentration.
(§2) Solid compound of cis-platinum was solubilized in PBS to a stock solution of 3.333 mM.
(§3) Final volume is 100 µL per well at this point.
(§4) 1) Incubate the plates at room temperature and away from light for 30 minutes.
(§5) 3) Add 100 µL /well of CellTiter-Glo® Reagent in each well. Avoid light.
(§6) 4) Mix contents for 2 minutes on an orbital shaker.
(§7) 5) Incubate plate at room temperature for 10 minutes to stabilize the luminescent signal.

[2] = system: glioblastoma line U87MG cells; experiment: CTG (CellTiter-Glo) cell viability assay, 6×6 combo matrix, 72 h, U87MG; conditions: Homo sapiens, U-87 MG;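 note: U87MG cells seeded at 2000 per well, exposed 72 h, viability read by CellTiter-Glo luminescence, inhibition expressed relative to vehicle-treated wells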
Description: as §1
U87MG cell lines, for compounds and vehicle groups, the seeding density of cell lines is 2000 cells/80 µL per well. For blank groups, add 100 µL medium. For PBS groups, add 100 µL PBS.
as §2, §3, §4, §5, §6, §7

[3] = system: pancreatic cancer line Capan-1 cells; experiment: CTG (CellTiter-Glo) cell viability assay, 6×6 combo matrix, 72 h, Capan-1; type: cell-based; conditions: for Relatively Cell inhibition of vehicle control(%): Capan-1
Description: To measure the cell inhibition effect of compounds and synergy effect of test articles on ten (10) cell lines using standard CTG assay.
b. A549, T47D, SK-OV-3, MKN45, SK-Hep-1, HT-29, Capan-1, 786-O and LNCaP cell line, for compounds and vehicle groups, the seeding density of cell lines is 3000 cells/80 µL per well. For blank groups, add 100 µL medium. For PBS groups, add 100 µL PBS.
8) Incubate the U87MG, A549, T47D, SK-OV-3, MKN45, SK-Hep-1, HT-29, Capan-1, 786-O and LNCaP cells overnight at 37° C./5% CO2.
5) Incubate the plates at 37° C./5% CO2 for 72 hours.
6) Read plates in Envision.

[4] = system: gastric cancer line MKN45 cells; experiment: CTG (CellTiter-Glo) cell viability assay, 6×6 combo matrix, 72 h, MKN45;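 note: MKN45 cell viability read as CellTiter-Glo luminescence after 72 h culture at 37 °C under 5% CO2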
Description: as §1, §2, §3, §4, §5, §6, §7

[5] = system: prostate adenocarcinoma line LNCap cells; experiment: CTG (CellTiter-Glo) cell viability assay, 6×6 combo matrix, 72 h, LNCaP; conditions: Homo sapiens, LNCaP;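 note: luminescence signal read after adding CellTiter-Glo reagent, with cells exposed to compounds for 72 h at 37 °C under 5% CO2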
Description: as §1, §2, §3, §4, §5, §6, §7

[6] = read-out: Relatively Cell inhibition of vehicle control(%), myricetin 0.8 µM only (cisplatin plate)
[7] = read-out: Relatively Cell inhibition of vehicle control(%), myricetin 0.8 µM only (doxorubicin plate)
[8] = read-out: Relatively Cell inhibition of vehicle control(%), myricetin 0.8 µM only (taxol plate)
[9] = read-out: Relatively Cell inhibition of vehicle control(%), myricetin 0.8 µM only (topotecan plate)
[10] = read-out: Relatively Cell inhibition of vehicle control(%), myricetin 4 µM only (cisplatin plate)
[11] = read-out: Relatively Cell inhibition of vehicle control(%), myricetin 4 µM only (doxorubicin plate)
[12] = read-out: Relatively Cell inhibition of vehicle control(%), myricetin 4 µM only (taxol plate)
[13] = read-out: Relatively Cell inhibition of vehicle control(%), myricetin 4 µM only (topotecan plate)
[14] = read-out: Relatively Cell inhibition of vehicle control(%), myricetin 20 µM only (cisplatin plate)
[15] = read-out: Relatively Cell inhibition of vehicle control(%), myricetin 20 µM only (doxorubicin plate)
[16] = read-out: Relatively Cell inhibition of vehicle control(%), myricetin 20 µM only (taxol plate)
[17] = read-out: Relatively Cell inhibition of vehicle control(%), myricetin 20 µM only (topotecan plate)
[18] = read-out: Relatively Cell inhibition of vehicle control(%), myricetin 100 µM only (cisplatin plate)
[19] = read-out: Relatively Cell inhibition of vehicle control(%), myricetin 100 µM only (doxorubicin plate)
[20] = read-out: Relatively Cell inhibition of vehicle control(%), myricetin 100 µM only (taxol plate)
[21] = read-out: Relatively Cell inhibition of vehicle control(%), myricetin 100 µM only (topotecan plate)
[22] = Homo sapiens, CAPAN-1, read-out: inhibition rate

Compound `O=c1c(O)c(-c2cc(O)c(O)c(O)c2)oc2cc(O)cc(O)c12` [myricetin] has an inhibition at 100 µM ([1]; 786-0, read-out: Relatively Cell inhibition of vehicle control, myricetin 100 µM only (cisplatin table)) of 43.4%, an inhibition at 100 µM ([1]; 786-0, read-out: Relatively Cell inhibition of vehicle control, myricetin 100 µM only (doxorubicin table)) of 43.1% and an inhibition at 100 µM ([1]; 786-0, read-out: Relatively Cell inhibition of vehicle control, myricetin 100 µM only (taxol table)) of 42%. It also gave an inhibition at 100 µM ([1]; 786-0, read-out: Relatively Cell inhibition of vehicle control, myricetin 100 µM only (topotecan table)) of 44.8%, an inhibition at 0.8 µM [2, 6] of 1.25% and an inhibition at 0.8 µM [2, 7] of -1.19%. The inhibition at 0.8 µM [2, 8] was 2.29%, the inhibition at 0.8 µM [2, 9] was 3.94% and the inhibition at 4 µM [2, 10] was -0.71%. The inhibition at 4 µM [2, 11] was 1.02%, the inhibition at 4 µM [2, 12] was 0.66% and the inhibition at 4 µM [2, 13] was 3.52%. The inhibition at 20 µM [2, 14] was 9.21%, the inhibition at 20 µM [2, 15] was 7.98% and the inhibition at 20 µM [2, 16] was 11.1%. It also gave an inhibition at 20 µM [2, 17] of 8.45%, an inhibition at 100 µM [2, 18] of 46.8% and an inhibition at 100 µM [2, 19] of 32.3%. The inhibition at 100 µM [2, 20] was 45.7%, the inhibition at 100 µM [2, 21] was 43.4% and the inhibition at 4 µM [3, 22] was 6.24%. For the same compound, the inhibition at 100 µM [3, 22] was 23.3%, the “Relatively Cell inhibition of vehicle control(%)” value ([3]; Myr 4 pM only (topotecan matrix)) was 0.67% and the “Relatively Cell inhibition of vehicle control(%)” value ([3]; Myr 20 pM only (doxorubicin matrix)) was 11.98%. The “Relatively Cell inhibition of vehicle control(%)” value ([3]; Myr 20 pM only (topotecan matrix)) was 5.10%, the “Relatively Cell inhibition of vehicle control(%)” value ([3]; Myr 100 pM only (doxorubicin matrix)) was 30.94% and the “Relatively Cell inhibition of vehicle control(%)” value ([3]; Myr 0.8 µM only (cisplatin matrix)) was 1.28%. For the same compound, the “Relatively Cell inhibition of vehicle control(%)” value ([3]; Myr 0.8 µM only (doxorubicin matrix)) was 7.91%, the “Relatively Cell inhibition of vehicle control(%)” value ([3]; Myr 0.8 µM only (taxol matrix)) was 3.71% and the “Relatively Cell inhibition of vehicle control(%)” value ([3]; Myr 0.8 µM only (topotecan matrix)) was -6.16%. For the same compound, the “Relatively Cell inhibition of vehicle control(%)” value ([3]; Myr 4 µM only (cisplatin matrix)) was 6.73%, the “Relatively Cell inhibition of vehicle control(%)” value ([3]; Myr 4 µM only (taxol matrix)) was 7.41% and the “Relatively Cell inhibition of vehicle control(%)” value ([3]; Myr 20 µM only (cisplatin matrix)) was 10.48%. For the same compound, the “Relatively Cell inhibition of vehicle control(%)” value ([3]; Myr 20 µM only (taxol matrix)) was 9.11%, the “Relatively Cell inhibition of vehicle control(%)” value ([3]; Myr 100 µM only (cisplatin matrix)) was 31.40% and the “Relatively Cell inhibition of vehicle control(%)” value ([3]; Myr 100 µM only (taxol matrix)) was 30.66%. The “Relatively Cell inhibition of vehicle control(%)” value ([4]; Myr 0.8 µM only (Cis 0)) was 5.96%, the “Relatively Cell inhibition of vehicle control(%)” value ([4]; Myr 0.8 µM only (Dox 0)) was 1.79% and the “Relatively Cell inhibition of vehicle control(%)” value ([4]; Myr 0.8 µM only (Tax 0)) was 0.13%. The “Relatively Cell inhibition of vehicle control(%)” value ([4]; Myr 0.8 µM only (Top 0)) was -8.02%, the “Relatively Cell inhibition of vehicle control(%)” value ([4]; Myr 4 µM only (Cis 0)) was 6.78% and the “Relatively Cell inhibition of vehicle control(%)” value ([4]; Myr 4 µM only (Dox 0)) was 2.42%. For the same compound, the “Relatively Cell inhibition of vehicle control(%)” value ([4]; Myr 4 µM only (Tax 0)) was -1.75%, the “Relatively Cell inhibition of vehicle control(%)” value ([4]; Myr 4 µM only (Top 0)) was -4.89% and the “Relatively Cell inhibition of vehicle control(%)” value ([4]; Myr 20 µM only (Cis 0)) was 14.42%. The “Relatively Cell inhibition of vehicle control(%)” value ([4]; Myr 20 µM only (Dox 0)) was 13.04%, the “Relatively Cell inhibition of vehicle control(%)” value ([4]; Myr 20 µM only (Tax 0)) was 5.06% and the “Relatively Cell inhibition of vehicle control(%)” value ([4]; Myr 20 µM only (Top 0)) was 1.70%. For the same compound, the “Relatively Cell inhibition of vehicle control(%)” value ([4]; Myr 100 µM only (Cis 0), listed as Myr) was 44.00%, the “Relatively Cell inhibition of vehicle control(%)” value ([4]; Myr 100 µM only (Dox 0)) was 35.29% and the “Relatively Cell inhibition of vehicle control(%)” value ([4]; Myr 100 µM only (Tax 0)) was 32.89%. The “Relatively Cell inhibition of vehicle control(%)” value ([4]; Myr 100 µM only (Top 0)) was 29.93%, the inhibition at 0.8 µM [5, 6] was -1.65% and the inhibition at 0.8 µM [5, 7] was -0.32%. The inhibition at 0.8 µM [5, 8] was -2.06%, the inhibition at 0.8 µM [5, 9] was -2.79% and the inhibition at 4 µM [5, 10] was 0.26%. The inhibition at 4 µM [5, 11] was -3.26%, the inhibition at 4 µM [5, 12] was -5.5% and the inhibition at 4 µM [5, 13] was 8.5%. The inhibition at 20 µM [5, 14] was -3.11%, the inhibition at 20 µM [5, 15] was -2.66% and the inhibition at 20 µM [5, 16] was 4.8%. For the same compound, the inhibition at 20 µM [5, 17] was 6.5%, the inhibition at 100 µM [5, 18] was 27.2% and the inhibition at 100 µM [5, 19] was 21.1%. The inhibition at 100 µM [5, 20] was 31.4% and the inhibition at 100 µM [5, 21] was 30.1%.
